Assays:
Mythimna separata = experiment: Efficacy test against Mythimna separata (treated artificial feed); assay type: in vivo; settings: 1 μl of Emulsion (I) (5% active ingredient) in 0.8 g artificial feed; second-instar larvae; 25° C.; fifth day
Procedure: (§1) 5 parts of the compound of the present invention, 93.6 parts of dimethylformamide and 1.4 parts of polyoxyethylene alkyl aryl ether were mixed and dissolved to prepare Emulsion (I) including 5% of an active ingredient.
For the control, Emulsion (II) was prepared by mixing and dissolving 93.6 parts of dimethylformamide and 1.4 parts of polyoxyethylene alkyl aryl ether.
(§2) An insect mortality rate was calculated by the numerical equation shown below.
(§3) Insect mortality rate (%)={(Number of dead insects)/(Number of sample insects)}×100
0.8 g of a commercially available artificial feed (Insecta LFS, manufactured by Nosan Corporation) and 1 μl of Emulsion (I) were mixed thoroughly. Thereby, a test feed was obtained.
The test feed was placed in an amount of 0.2 g in each of the treatment areas of a plastic test container (volume: 1.4 ml). Subsequently, two second-instar larvae of Mythimna separata were inoculated into each treatment area, and the test container was sealed with a plastic lid in order to prevent the larvae from escaping. The sealed container was placed in a thermostatic chamber at 25° C., and the insect mortality rate and the amount of feed consumed were determined on the fifth day. The test was performed twice.
As the control areas, the insect mortality rate and the amount of feed consumed were determined in the same manner as that described in Test Example 1, with the exception of replacing Emulsion (I) with Emulsion (II).

Plutella xylostella = experiment: Efficacy test against Plutella xylostella (cabbage leaf dip); assay type: in vivo; settings: foliar, 72 h, cabbage leaves soaked 30 seconds, second-instar larvae, 3 days after inoculation, read-out: insect mortality rate
Procedure: as §1, §2, §3
Emulsion (I) was diluted with water so that the concentration of the compound of the present invention was 125 ppm. Cabbage leaves were soaked in the diluted liquid for 30 seconds. Subsequently, the cabbage leaves were put on Petri dishes, followed by inoculating 5 second-instar larvae of Plutella xylostella. The Petri dishes were placed in a thermostatic chamber at a temperature of 25° C. and humidity of 60%. Mortality was investigated 3 days after inoculation, and the insect mortality rate was calculated. The test was performed twice.

Aphis craccivora = experiment: Efficacy test against Aphis craccivora (spray on black-eyed pea plants); assay type: in vivo; settings: in Vigna unguiculata, 96 h, sprayed on black-eyed pea plants, nymphs, 4 days after spraying, read-out: insect mortality rate
Procedure: as §1, §2, §3
Black-eyed pea plants were raised in No. 3 pots and the primary leaves were inoculated with nymphs of Aphis craccivora. Emulsion (I) was diluted with water so that the concentration of the compound of the present invention was 125 ppm. Subsequently, the aforementioned diluted liquid was sprayed on the black-eyed pea plants on which the nymphs of Aphis craccivora were parasitic. The aforementioned black-eyed pea plants were then placed in a thermostatic chamber with a temperature of 25° C. and humidity of 60%. Mortality was investigated 4 days after spraying was carried out, and the insect mortality rate of Aphis craccivora was calculated. The test was performed twice.

Phyllotreta striolata = experiment: Efficacy test against Phyllotreta striolata (spray on bok-choi seedlings); assay type: in vivo; settings: 168 h, sprayed on bok-choi seedlings, adults, 7 days after inoculation, read-out: insect mortality rate
Procedure: as §1, §2, §3
Emulsion (I) was diluted with water so that the concentration of the compound of the present invention was 125 ppm, to prepare a diluted liquid for testing. The aforementioned diluted liquid was sprayed on bok-choi seedlings (7th major leaf-development period) planted in No. 3 pots. After the bok-choi seedlings were subjected to air-drying, the seedlings were placed in plastic cups, followed by inoculating 10 adult Phyllotreta striolata. The plastic cups were stored in a thermostatic chamber at a temperature of 25° C. and humidity of 65%. Mortality was investigated 7 days after inoculation, and the insect mortality rate was calculated. The test was performed twice.

Nilaparvata lugens = experiment: Efficacy test against Nilaparvata lugens (rice seedling dip); assay type: in vivo; settings: 168 h, rice seedlings soaked 30 seconds, second-instar larvae, 7 days after inoculation, read-out: insect mortality rate
Procedure: as §1, §2, §3
Emulsion (I) was diluted with water so that the concentration of the compound of the present invention was 125 ppm. Rice seedlings were soaked in the diluted liquid for 30 seconds, and subjected to air-drying. Subsequently, the rice seedlings were placed in plastic cases, followed by inoculating 5 second-instar larvae of Nilaparvata lugens. The plastic cases were placed in a thermostatic chamber at a temperature of 25° C. and humidity of 65%. Mortality was investigated 7 days after inoculation, and the insect mortality rate was calculated. The test was performed twice.

Compound: CCS(=O)(=O)c1cnc(-c2ncccn2)nc1-c1nc2cc(S(=O)(=O)C(F)(F)F)ccc2o1 [A-9, 2-(5-(ethylsulfonyl)-[2,2′-bipyrimidin]-4-yl)-5-((trifluoromethyl)sulfonyl)benzo[d]oxazole]
- melting point: 118 to 124 °C

Compound: CCS(=O)(=O)c1cnc(N(C)C)nc1-c1nc2cc(C(F)(F)F)cnc2n1C [A-17]
- insect mortality rate or amount of feed consumed relative to control area (Mythimna separata): mortality rate against Mythimna separata was 100%, or the amount of feed consumed was 10% or less

Compound: CCS(=O)(=O)c1cnc(-c2ncn(C)n2)nc1-c1nc2cc(C(F)(F)F)cnc2n1C [A-5]
- insect mortality rate or amount of feed consumed relative to control area (Mythimna separata): mortality rate against Mythimna separata was 100%, or the amount of feed consumed was 10% or less

Compound: CCS(=O)(=O)c1cnc(N)nc1-c1nc2cc(SC(F)(F)F)ccc2o1 [A-10]
- insect mortality rate or amount of feed consumed relative to control area (Mythimna separata): mortality rate against Mythimna separata was 100%, or the amount of feed consumed was 10% or less

Compound: CCS(=O)(=O)c1cnc(OC)nc1-c1nc2cc(C(F)(F)F)cnc2n1C [A-23]
- insect mortality rate or amount of feed consumed relative to control area (Mythimna separata): mortality rate against Mythimna separata was 100%, or the amount of feed consumed was 10% or less

Compound: CCS(=O)(=O)c1cnc(N)nc1-c1nc2cc(C(F)(F)F)cnc2n1C [A-13]
- insect mortality rate or amount of feed consumed relative to control area (Mythimna separata): mortality rate against Mythimna separata was 100%, or the amount of feed consumed was 10% or less

Compound: CCS(=O)(=O)c1cnc(-c2ncccn2)nc1-c1nc2cc(C(F)(F)F)cnc2n1C [A-2, 2-(5-(ethylsulfonyl)-[2,2′-bipyrimidin]-4-yl)-3-methyl-6-(trifluoromethyl)-3H-imidazo[4,5-b]pyridine]
- insect mortality rate or amount of feed consumed relative to control area (Mythimna separata): mortality rate against Mythimna separata was 100%, or the amount of feed consumed was 10% or less
- mortality at 125 ppm (Plutella xylostella): ≥ 80%
- mortality at 125 ppm (Aphis craccivora): ≥ 80%
- mortality at 125 ppm (Phyllotreta striolata): ≥ 80%
- mortality at 125 ppm (Nilaparvata lugens): ≥ 80%

Compound: CCS(=O)(=O)c1cnc(-n2ncnc2N)nc1-c1nc2cc(C(F)(F)F)cnc2n1C [A-12, 1-(5-(ethylsulfonyl)-4-(3-methyl-6-(trifluoromethyl)-3H-imidazo[4,5-b]pyridin-2-yl)pyrimidin-2-yl)-1H-1,2,4-triazol-5-amine]
- insect mortality rate or amount of feed consumed relative to control area (Mythimna separata): mortality rate against Mythimna separata was 100%, or the amount of feed consumed was 10% or less
- mortality at 125 ppm (Plutella xylostella): ≥ 80%
- mortality at 125 ppm (Phyllotreta striolata): ≥ 80%
- mortality at 125 ppm (Nilaparvata lugens): ≥ 80%

Compound: CCOC(=O)c1cnn(-c2ncc(S(=O)(=O)CC)c(-c3nc4cc(C(F)(F)F)cnc4n3C)n2)c1N [A-26, ethyl 5-amino-1-(5-(ethylsulfonyl)-4-(3-methyl-6-(trifluoromethyl)-3H-imidazo[4,5-b]pyridin-2-yl)pyrimidin-2-yl)-1H-pyrazole-4-carboxylate]
- insect mortality rate or amount of feed consumed relative to control area (Mythimna separata): mortality rate against Mythimna separata was 100%, or the amount of feed consumed was 10% or less
- mortality at 125 ppm (Plutella xylostella): ≥ 80%
- mortality at 125 ppm (Aphis craccivora): ≥ 80%
- mortality at 125 ppm (Phyllotreta striolata): ≥ 80%

Compound: CCS(=O)(=O)c1cnc(-n2cccn2)nc1-c1nc2cc(C(F)(F)F)cnc2n1C [A-20]
- insect mortality rate or amount of feed consumed relative to control area (Mythimna separata): mortality rate against Mythimna separata was 100%, or the amount of feed consumed was 10% or less

Compound: CCS(=O)(=O)c1cnc(-c2ncccn2)nc1-c1nc2cc(SC(F)(F)F)ccc2o1 [A-7, 2-(5-(ethylsulfonyl)-[2,2′-bipyrimidin]-4-yl)-5-((trifluoromethyl)thio)benzo[d]oxazole]
- melting point: 223 to 225 °C

Compound: CCS(=O)(=O)c1cnc(-n2nccc2N)nc1-c1nc2cc(C(F)(F)F)cnc2n1C [A-27, 1-(5-(ethylsulfonyl)-4-(3-methyl-6-(trifluoromethyl)-3H-imidazo[4,5-b]pyridin-2-yl)pyrimidin-2-yl)-1H-pyrazol-5-amine]
- melting point: 247 to 249 °C

Compound: CCS(=O)(=O)c1cnc(NC)nc1-c1nc2cc(C(F)(F)F)cnc2n1C [A-16]
- insect mortality rate or amount of feed consumed relative to control area (Mythimna separata): mortality rate against Mythimna separata was 100%, or the amount of feed consumed was 10% or less

Compound: CCS(=O)(=O)c1cnc(NN)nc1-c1nc2cc(C(F)(F)F)cnc2n1C [A-24, 2-(5-(ethylsulfonyl)-2-hydrazineylpyrimidin-4-yl)-3-methyl-6-(trifluoromethyl)-3H-imidazo[4,5-b]pyridine]
- melting point: 227 to 229 °C

Compound: CCS(=O)(=O)c1cnc(-n2ccc(N)n2)nc1-c1nc2cc(C(F)(F)F)cnc2n1C [A-25]
- insect mortality rate or amount of feed consumed relative to control area (Mythimna separata): mortality rate against Mythimna separata was 100%, or the amount of feed consumed was 10% or less

Compound: CCS(=O)(=O)c1cnc(NCCN)nc1-c1nc2cc(C(F)(F)F)cnc2n1C [A-28]
- insect mortality rate or amount of feed consumed relative to control area (Mythimna separata): mortality rate against Mythimna separata was 100%, or the amount of feed consumed was 10% or less

Compound: CCS(=O)(=O)c1cnc(-c2ncccn2)nc1-c1nc2cc([S+]([O-])C(F)(F)F)ccc2o1 (stereo not drawn) [A-8, 2-(5-(ethylsulfonyl)-[2,2′-bipyrimidin]-4-yl)-5-((trifluoromethyl)sulfinyl)benzo[d]oxazole]
- melting point: 192 to 195 °C
